Target: T1, POLγA:A467T (Homo sapiens, UniProt P54098, A467T)
T1 sequence (P54098 1-1239 A467T): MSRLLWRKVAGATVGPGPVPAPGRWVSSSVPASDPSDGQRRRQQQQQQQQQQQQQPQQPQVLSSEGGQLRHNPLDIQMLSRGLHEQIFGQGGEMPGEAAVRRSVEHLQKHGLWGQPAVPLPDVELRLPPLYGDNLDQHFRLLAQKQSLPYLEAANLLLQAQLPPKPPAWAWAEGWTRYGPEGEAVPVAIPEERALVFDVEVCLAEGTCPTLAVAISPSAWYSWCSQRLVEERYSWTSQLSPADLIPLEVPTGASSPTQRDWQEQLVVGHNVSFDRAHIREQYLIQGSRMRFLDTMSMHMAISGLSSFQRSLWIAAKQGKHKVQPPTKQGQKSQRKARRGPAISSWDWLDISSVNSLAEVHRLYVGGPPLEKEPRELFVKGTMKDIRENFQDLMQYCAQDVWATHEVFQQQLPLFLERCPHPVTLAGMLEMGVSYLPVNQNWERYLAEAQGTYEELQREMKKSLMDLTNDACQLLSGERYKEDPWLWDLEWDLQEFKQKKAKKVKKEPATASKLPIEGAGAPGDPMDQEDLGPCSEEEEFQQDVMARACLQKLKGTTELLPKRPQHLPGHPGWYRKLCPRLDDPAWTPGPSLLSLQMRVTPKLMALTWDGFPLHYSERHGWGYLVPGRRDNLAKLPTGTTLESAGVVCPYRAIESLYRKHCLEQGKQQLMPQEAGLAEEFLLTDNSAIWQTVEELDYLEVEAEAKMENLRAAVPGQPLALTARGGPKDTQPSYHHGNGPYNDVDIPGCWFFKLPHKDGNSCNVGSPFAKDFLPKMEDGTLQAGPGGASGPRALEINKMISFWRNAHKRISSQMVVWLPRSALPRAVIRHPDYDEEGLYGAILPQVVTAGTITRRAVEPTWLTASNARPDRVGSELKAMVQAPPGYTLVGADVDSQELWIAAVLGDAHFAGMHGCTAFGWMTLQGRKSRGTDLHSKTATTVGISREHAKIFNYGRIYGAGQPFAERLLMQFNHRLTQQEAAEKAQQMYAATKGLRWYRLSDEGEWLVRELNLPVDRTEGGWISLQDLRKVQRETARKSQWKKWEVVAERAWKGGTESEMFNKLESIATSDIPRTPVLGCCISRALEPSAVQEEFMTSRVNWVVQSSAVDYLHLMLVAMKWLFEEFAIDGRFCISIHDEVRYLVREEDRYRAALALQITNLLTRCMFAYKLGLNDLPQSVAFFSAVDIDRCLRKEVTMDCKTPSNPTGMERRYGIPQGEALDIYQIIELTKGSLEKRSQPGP
T1 sequence (Q9UHN1 1-485 partner): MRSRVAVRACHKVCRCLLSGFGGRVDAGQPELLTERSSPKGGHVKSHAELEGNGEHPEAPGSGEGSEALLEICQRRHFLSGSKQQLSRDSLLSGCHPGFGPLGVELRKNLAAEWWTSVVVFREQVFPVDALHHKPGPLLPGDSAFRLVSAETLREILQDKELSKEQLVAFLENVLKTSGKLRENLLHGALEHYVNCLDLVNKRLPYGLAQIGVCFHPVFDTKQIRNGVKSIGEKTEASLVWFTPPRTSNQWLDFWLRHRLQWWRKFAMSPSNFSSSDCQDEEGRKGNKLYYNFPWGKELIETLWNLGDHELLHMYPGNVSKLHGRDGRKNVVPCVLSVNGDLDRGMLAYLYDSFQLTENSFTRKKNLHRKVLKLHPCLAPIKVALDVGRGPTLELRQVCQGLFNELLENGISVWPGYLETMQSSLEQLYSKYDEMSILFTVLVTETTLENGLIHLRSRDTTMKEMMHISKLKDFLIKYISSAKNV
Assay: DNA polymerization assay, POLγA:A467T mutant
Format: biochemical
Conditions: stimulation of polymerase activity, primed M13mp18 ssDNA, 37° C. 2 hours; read-out: A467T AC50

Structure (SMILES)	AC50 [µM]
Cc1cc(S(=O)(=O)Nc2cn(Cc3ccccc3)cn2)c(C)cc1Cl [Example 168, N-(1-benzyl-1H-imidazol-4-yl)-4-chloro-2,5-dimethylbenzenesulfonamide]	> 100
Cc1cc(S(=O)(=O)Nc2cn(-c3ccccc3)cn2)c(C)cc1Cl [Example 169, 4-chloro-2,5-dimethyl-N-(1-phenyl-1H-imidazol-4-yl)benzenesulfonamide]	> 100
Cc1cc(S(=O)(=O)Nc2cn(C)c(-c3ccccc3)n2)c(C)cc1Cl [Example 170, 4-chloro-2,5-dimethyl-N-(1-methyl-2-phenyl-1H-imidazol-4-yl)benzenesulfonamide]	> 10
Cc1cc(S(=O)(=O)Nc2cnn(-c3ccccc3)n2)c(C)cc1Cl [Example 171, 4-chloro-2,5-dimethyl-N-(2-phenyl-2H-1,2,3-triazol-4-yl)benzenesulfonamide]	> 10
Cc1cc(S(=O)(=O)Nc2csc(C(=O)N(C)CC(N)=O)n2)c(C)cc1Cl [Example 172, N-(2-amino-2-oxoethyl)-4-((4-chloro-2,5-dimethylphenyl)sulfonamido)-N-methylthiazole-2-carboxamide]	> 10
Cc1cc(S(=O)(=O)Nc2csc(-c3ccccn3)n2)c(C)cc1Cl [Example 173, 4-chloro-2,5-dimethyl-N-(2-(pyridin-2-yl)thiazol-4-yl)benzenesulfonamide]	2
Cc1cc(S(=O)(=O)Nc2csc(C(=O)N3CCC[C@H]3C)n2)c(C)cc1Cl [Example 174, (R)-4-chloro-2,5-dimethyl-N-(2-(2-methylpyrrolidine-1-carbonyl)thiazol-4-yl)benzenesulfonamide]	2
Cc1cc(S(=O)(=O)Nc2csc(C(=O)N3CCC[C@@H]3C)n2)c(C)cc1Cl [Example 175, (S)-4-chloro-2,5-dimethyl-N-(2-(2-methylpyrrolidine-1-carbonyl)thiazol-4-yl)benzenesulfonamide]	3
Cc1cc(S(=O)(=O)Nc2csc(-c3ccncc3)n2)c(C)cc1Cl [Example 176, 4-chloro-2,5-dimethyl-N-(2-(pyridin-4-yl)thiazol-4-yl)benzenesulfonamide]	> 100
Cc1cc(S(=O)(=O)Nc2csc(C(=O)N(CC(N)=O)C3CCCC3)n2)c(C)cc1Cl [Example 177, N-(2-amino-2-oxoethyl)-4-((4-chloro-2,5-dimethylphenyl)sulfonamido)-N-cyclopentylthiazole-2-carboxamide]	> 100
Cc1cc(S(=O)(=O)Nc2csc(-n3cccn3)n2)c(C)cc1Cl [Example 178, N-(2-(1H-pyrazol-1-yl)thiazol-4-yl)-4-chloro-2,5-dimethylbenzenesulfonamide]	> 100
Cc1cc(S(=O)(=O)Nc2csc(C(=O)N(CC(N)=O)C3CCCCC3)n2)c(C)cc1Cl [Example 179, N-(2-amino-2-oxoethyl)-4-((4-chloro-2,5-dimethylphenyl)sulfonamido)-N-cyclohexylthiazole-2-carboxamide]	> 100
Cc1cc(S(=O)(=O)Nc2nc(-c3ccccc3)n(C)n2)c(C)cc1Cl [Example 180, 4-chloro-2,5-dimethyl-N-(1-methyl-5-phenyl-1H-1,2,4-triazol-3-yl)benzenesulfonamide]	> 10
Cc1cc(S(=O)(=O)Nc2csc(-c3ccn(C)n3)n2)c(C)cc1Cl [Example 181, 4-chloro-2,5-dimethyl-N-(2-(1-methyl-1H-pyrazol-3-yl)thiazol-4-yl)benzenesulfonamide]	> 10
Cc1cc(S(=O)(=O)Nc2csc(-c3cnn(C)c3)n2)c(C)cc1Cl [Example 183, 4-chloro-2,5-dimethyl-N-(2-(1-methyl-1H-pyrazol-4-yl)thiazol-4-yl)benzenesulfonamide]	6
Cc1cc2cc(NS(=O)(=O)c3cc(C)c(Cl)cc3C)ccc2[nH]1 [Example 184, 4-chloro-2,5-dimethyl-N-(2-methyl-1H-indol-5-yl)benzenesulfonamide]	33
